Columns and labels:
[1] = system: promoter region of the human calcitonin gene (C1-3 reporter cells, TT human thyroid carcinoma); assay: Calcitonin/Luciferase Reporter Gene Expression Assay (transcription activation ratio); type: cell-based; details: C13, 12 h, C1-3 cells, active if TAR>1.5, read-out: TAR (transcription activation ratio, luciferase activity with test compound vs untreated control)
[2] = system: Phosphodiesterase IV (PDE-IV) isolated from human U937 cells; assay: Inhibition of Phosphodiesterase IV (PDE-IV) Isolated from Human U937 Cells; type: biochemical; details: for IC50: linear regression of percent inhibition data bracketing 50% inhibition; for % Inhibition of PDE IV (normalized to rolipram): 1 μM [3H]-cAMP substrate
[3] = post-menopausal osteoporosis; cited from earlier work
[4] = cited from earlier work
[5] = system: calcitonin secreted by the C1-3 cell line (TT medullary thyroid carcinoma); assay: Calcitonin Secretion/RIA Assay; type: cell-based; details: Homo sapiens, C13, C1-3 cells, active if Secretion Ratio>2.5
Description: Calcitonin Secretion/RIA Assay Protocol
This assay was used to determine the ability of a compound to increase the amount of calcitonin secreted by the C1-3 cell line.
Cell Line: C1-3 (Parent Cell Line: TT-medullary thyroid carcinoma),
1. Glass tubes were labeled to include Total Count (TC), Nonspecific Binding (NSB), Maximum Binding (Bo), Standards, Controls and Patient Sera in duplicate.
2. […] of Standard Zero (Reagent D) was added to tubes 3 through 6 (NSB and Bo).
3. […] of Standards* (Reagents E-1) was added to tubes 7-16 as follows:
4. […] of Patient Serum 1 was added to tubes 21 and 22, Patient Serum 2 was added to tubes 23 and 24, etc.
5. […] of Reagent L (NSB Buffer) was added to tubes 3 and 4.
6. […] of Reagent A (Anti-Calcitonin) was added to all tubes except tubes 1 & 2 (TC) and tube 3 & 4 (NSB). All tubes were vortexed, covered with parafilm or foil and incubated 44±6 hours at 2-8° C.
7. […] of 125.vertline.Calcitonin (Reagent B) was added to all tubes. All tubes were vortexed, covered with parafilm or foil and incubated 22±3 hours at 2-8° C.
8. Reagent C (Anti-Goat Precipitant) was mixed gently but thoroughly by inverting the vial several times before use. 1 mL Reagent C was added to all tubes except 1 and 2 (TC). Tubes were vortexed and incubated 20 minutes at room temperature.
9. All tubes were centrifuged at 1300-1500×g for 15 minutes at 2-8° C.
10. Supernatant was decanted immediately after centrifugation taking care to leave the precipitate intact.
11. Tubes were counted 4 minutes or longer.
Secretion Ratio: Stimulation of calcitonin secretion is expressed as a ratio of secretion activity in the presence of test compound compared to the secretion activity in the untreated control: [formula]
Secretion Activity: Compounds were designated active if Secretion Ratio>2.5.

[6] = system: Ovarietomy Induced Osteopenia in Rats; assay: Ovarietomy Induced Osteopenia in Rats (trabecular BMD); type: in vivo; details: Rattus norvegicus, 672 h; 30 mg/kg/day, ip; 4 weeks; n=8; * p < 0.005 vs. vehicle value (Examples 6, 12, 18); read-out: Percent Protection (trabecular BMD)

IC50 [2] | Molecule | fold induction at 30 µM [1] | % Inhibition of PDE IV (normalized to rolipram) [2] | effect on bone mass and total body calcium [3] | incidence of hip and vertebral fractures [3] | oral bioavailability (in words) [4] | fold induction at 30 µM [5] | inhibition in vivo at 30 mg/kg [6]
6 µM | CCCCn1c(=O)n(CC)c(=O)c2c1ncn2S(=O)(=O)c1ccc(C)cc1 [Example 16, 3-Butyl-1-ethyl-7-(toluene-4-sulfonyl)-3,7-dihydro-purine-2,6-dione] | 2.1 | 38% |  |  |  |  | 
 | calcitonin: 32 amino acid polypeptide hormone secreted by the parafollicular or C cells of the thyroid gland |  |  | maintenance of bone mass and total body calcium | decreases in the incidence of hip and vertebral fractures | lack of oral bioavailability |  | 
 | CCCCn1c(=O)c2c(ncn2S(=O)(=O)CCCC)n(CCCC)c1=O [Example 2, 7-(Butane-1-sulfonyl)-1,3-dibutyl-3,7-dihydro-purine-2,6-dione] | 2.2 | 97% |  |  |  | 4.65 | 23%
25.2 µM | CCCCn1c(=O)c2c(ncn2S(C)(=O)=O)n(CCCC)c1=O [Example 1, 1,3-Dibutyl-7-methanesulfonyl-3,7-dihydro-purine-2,6-dione] | 2.1 | 16% |  |  |  | 4.65 | 
 | CCCCn1c(=O)c2c(ncn2S(=O)(=O)c2cccc3ccccc23)n(CCCC)c1=O [Example 7, 1,3-Dibutyl-7-(naphthalene-1-sulfonyl)-3,7-dihydro-purine-2,6-dione] | 2.5 | 83% |  |  |  | 4.5 | 37%
 | CCCCn1c(=O)c2c(ncn2S(=O)(=O)C[C@@]23CC[C@@H](CC2=O)C3(C)C)n(CCCC)c1=O [Example 10, 1,3-Dibutyl-7-(7,7-dimethyl-2-oxo-bicyclo[2.2. 1]hept-1-ylmethanesulfonyl)-3,7-dihydro-purine-2,6-dione] | 2 | 89% |  |  |  | 4.5 | -10%
 | CCCCn1c(=O)n(CC=C(C)C)c(=O)c2c1ncn2S(=O)(=O)c1ccc(OC)c(OC)c1 [Example 17, 3-Butyl-7-(3,4-dimethoxy-benzenesulfonyl)-1-(3-methyl-but-2-enyl)-3,7-dihydro-purine-2,6-dione] | 2.8 | 24% |  |  |  | 3.66 | 
3.2 µM | CCCCn1c(=O)c2c(ncn2S(=O)(=O)Cc2ccccc2)n(CCCC)c1=O [Example 9, 1,3-Dibutyl-7-phenylmethanesulfonyl-3,7-dihydro-purine-2,6-dione] | 2.3 | 93% |  |  |  | 5.1 | 25%
5.2 µM | CCCCn1c(=O)n(CC=C(C)C)c(=O)c2c1ncn2S(=O)(=O)c1ccc(C)cc1 [Example 15, 3-Butyl-1-(3-methyl-but-2-enyl)-7-(toluene-4-sulfonyl)-3,7-dihydro-purine-2,6-dione] | 2.1 | 35% |  |  |  | 3.74 | 15%
 | CCCCn1c(=O)c2c(nc(C)n2S(=O)(=O)CCCCl)n(CCCC)c1=O [Example 19, 1,3-Dibutyl-7-(3-chloro-propane-1-sulfonyl)-8-methyl-3,7-dihydro-purine-2,6-dione] | 1.7 | 5% |  |  |  | 4.09 | 
 | CCCCn1c(=O)c2c(ncn2S(=O)(=O)c2cccc([N+](=O)[O-])c2)n(CCCC)c1=O [Example 3, 1,3-Dibutyl-7-(3-nitro-benzenesulfonyl)-3,7-dihydro-purine-2,6-dione] | 2 | 87% |  |  |  | 1.65 | 30%
 | CCCCn1c(=O)c2c(ncn2S(=O)(=O)c2ccc(C(C)(C)C)cc2)n(CCCC)c1=O [Example 13, 1,3-Dibutyl-7-(4-tert-butyl-benzenesulfonyl)-3,7-dihydro-purine-2,6-dione] | 1.8 | 66% |  |  |  | 5.1 | 13%
 | CCCCn1c(=O)c2c(ncn2S(=O)(=O)c2c(C)noc2C)n(CCCC)c1=O [Example 14, 1,3-Dibutyl-7-(3,5-dimethyl-isoxazole-4-sulfonyl)-3,7-dihydro-purine-2,6-dione] | 2.5 | 20% |  |  |  | 3.3 | 
 | CCCCn1c(=O)c2c(ncn2S(=O)(=O)c2ccc(N(OC(C)=O)C(C)=O)cc2)n(CCCC)c1=O [Example 11, N-Acetoxy-N-[4-(1,3-dibutyl-2,6-dioxo-1,2,3,6-tetrahydro-purine-7-sulfonyl)-phenyl]-acetamide] | 2.1 |  |  |  |  | 4.3 | 
 | CCCCn1c(=O)c2c(ncn2S(=O)(=O)c2cccs2)n(CCCC)c1=O [Example 5, 1,3-Dibutyl-7-(thiophene-2-sulfonyl)-3,7-dihydro-purine-2,6-dione] | 1.8 | 52% |  |  |  |  | 
6 µM | CCCCn1c(=O)c2c(ncn2S(=O)(=O)c2c(C)cc(C)cc2C)n(CCCC)c1=O [Example 12, 1,3-Dibutyl-7-(2,4,6-trimethyl-benzenesulfonyl)-3,7-dihydro-purine-2,6-dione] | 2.1 | 42% |  |  |  | 4.04 | 50%
1.2 µM | CCCCn1c(=O)c2c(ncn2S(=O)(=O)c2ccc(OC)c(OC)c2)n(CCCC)c1=O [Example 4, 1,3-Dibutyl-7-(3,4-dimethoxy-benzenesulfonyl)-3,7-dihydro-purine-2,6-dione] | 2.5 | 41% |  |  |  | 4.7 | 35%
23.3 µM | CCCCn1c(=O)c2c(ncn2S(=O)(=O)c2cc(C)c(Cl)cc2C)n(CCCC)c1=O [Example 18, 1,3-Dibutyl-7-(4-chloro-2,5-dimethyl-benzenesulfonyl)-3,7-dihydro-purine-2,6-dione] | 2.5 | 37% |  |  |  | 5.32 | 52%
 | CCCCn1c(=O)c2c(nc(C)n2S(=O)(=O)c2ccc(C)cc2)n(CCCC)c1=O [Example 20, 1,3-Dibutyl-8-methyl-7-(toluene-4-sulfonyl)-3,7-dihydro-purine-2,6-dione] | 2 | 58% |  |  |  | 3.23 | 
4.1 µM | CCCCn1c(=O)c2c(ncn2S(=O)(=O)CCCCl)n(CCCC)c1=O [Example 6, 1,3-Dibutyl-7-(3-chloro-propane-1-sulfonyl)-3,7-dihydro-purine-2,6-dione] | 2 | 44% |  |  |  | 3.6 | 47%
 | CCCCn1c(=O)c2c(ncn2S(=O)(=O)c2ccc(NO)cc2)n(CCCC)c1=O [Example 8, 1,3-Dibutyl-7-(4-hydroxyamino-benzenesulfonyl)-3,7-dihydro-purine-2,6-dione] | 2 | 82% |  |  |  | 5.4 | -2%
